From patent US20250221410A1, “SUBSTITUTED 2-C-AZINES AND SALTS THEREOF, AND USE THEREOF AS HERBICIDAL ACTIVE SUBSTANCES” (BAYER AKTIENGESELLSCHAFT, priority 2022, published 2025)

Assays:
Assay type in all cases: in vivo
[1] = tested on: VERPE: Veronica persica; assay: Post-emergence herbicidal efficacy at 1280 g/ha, VERPE; settings: visual rating about 3 weeks after treatment vs untreated controls
Protocol: (§1) Seeds of mono- and dicotyledonous weed plants were placed in plastic pots in sandy loam soil (doubly sown with in each case one species of mono- or dicotyledonous weed plants per pot), covered with soil and cultivated in a greenhouse under controlled growth conditions. 2 to 3 weeks after sowing, the test plants were treated at the one-leaf stage. The compounds of the invention, formulated in the form of wettable powders (WP) or as emulsion concentrates (EC), were applied to the green parts of the plants as aqueous suspension or emulsion with addition of 0.5% additive at a water application rate equivalent to 600 litres per hectare. After the test plants had been kept in the greenhouse under optimum growth conditions for about 3 weeks, the activity of the preparations was rated visually in comparison to untreated controls. For example, 100% activity=the plants have died, 0% activity=like control plants. Tables A1 to A12 below show the effects of selected compounds of the general formula (I) according to Table 1 on various harmful plants and at an application rate corresponding to 1280 g/ha, which were obtained by the trial procedure specified above.

[2] = tested on: AMARE: Amaranthus retroflexus; assay: Pre-emergence herbicide efficacy at 1280 g/ha, AMARE; settings: visual scoring after about 3 weeks vs untreated controls
Text: (§2) Seeds of mono- and dicotyledonous weed plants were placed in plastic pots in sandy loam soil (doubly sown with one species each of mono- or dicotyledonous weed plants per pot) and covered with soil. The compounds of the invention, formulated in the form of wettable powders (WP) or as emulsion concentrates (EC), were then applied to the surface of the covering soil as aqueous suspension or emulsion with addition of 0.5% additive at a water application rate of 600 litres per hectare (converted). After the treatment, the pots were placed in a greenhouse and kept under good growth conditions for the test plants. After about 3 weeks, the efficacy of the preparations was scored visually in comparison with untreated controls as percentages. For example, 100% activity=the plants have died, 0% activity=like control plants. Tables C1 to C12 below show the effects of selected compounds of the general formula (I) according to Table 1 on various harmful plants and at an application rate corresponding to 1280 g/ha, which were obtained by the trial procedure specified above.

[3] = tested on: STEME: Stellaria media; assay: Post-emergence herbicidal efficacy at 1280 g/ha, STEME; settings: visual rating about 3 weeks after treatment vs untreated controls
Protocol: as §1

[4] = tested on: AMARE: Amaranthus retroflexus; assay: Post-emergence herbicidal efficacy at 1280 g/ha, AMARE; settings: rated visually after about 3 weeks vs untreated controls, 100% = plants have died, 0% = like control plants
Protocol: as §1

[5] = tested on: ABUTH: Abutilon theophrasti; assay: Pre-emergence herbicide efficacy at 1280 g/ha, ABUTH; settings: visual scoring after about 3 weeks vs untreated controls
Text: as §2

[6] = tested on: KCHSC: Kochia scoparia; assay: Post-emergence herbicidal efficacy at 1280 g/ha, KCHSC; settings: visual rating about 3 weeks after treatment vs untreated controls
Protocol: as §1

[7] = tested on: POAAN: Poa annua; assay: Pre-emergence herbicide efficacy at 1280 g/ha, POAAN; settings: visual scoring after about 3 weeks vs untreated controls
Text: as §2

[8] = tested on: POAAN: Poa annua; assay: Post-emergence herbicidal efficacy at 1280 g/ha, POAAN; settings: visual rating about 3 weeks after treatment vs untreated controls
Protocol: as §1

[9] = tested on: ABUTH: Abutilon theophrasti; assay: Post-emergence herbicidal efficacy at 1280 g/ha, ABUTH; settings: rated visually after about 3 weeks vs untreated controls, 100% = plants have died, 0% = like control plants
Protocol: as §1

[10] = tested on: SETVI: Setaria viridis; assay: Pre-emergence herbicide efficacy at 1280 g/ha, SETVI; settings: visual scoring vs untreated controls
Text: as §2

[11] = tested on: STEME: Stellaria media; assay: Pre-emergence herbicide efficacy at 1280 g/ha, STEME; settings: visual scoring vs untreated controls
Text: as §2

[12] = tested on: DIGSA: Digitaria sanguinalis; assay: Pre-emergence herbicide efficacy at 1280 g/ha, DIGSA; settings: visual scoring after about 3 weeks vs untreated controls
Text: as §2

[13] = tested on: ECHCG: Echinochloa crus-galli; assay: Pre-emergence herbicide efficacy at 1280 g/ha, ECHCG; settings: visual scoring after about 3 weeks vs untreated controls
Text: as §2

[14] = tested on: VERPE: Veronica persica; assay: Pre-emergence herbicide efficacy at 1280 g/ha, VERPE; settings: visual scoring vs untreated controls
Text: as §2

Cc1cccc(C(C#N)c2ncc(Cl)cn2)c1Oc1ccc(F)cc1 (racemic) [Example 1-30]
Post-emergence efficacy against VERPE [1]: 90%

COc1cccc(C(C#N)c2ncc(Cl)cn2)c1Oc1ccc(F)cc1 (racemic) [Example 1-32]
Pre-emergence efficacy against AMARE [2]: 90%
Post-emergence efficacy against STEME [3]: 90%
Post-emergence efficacy against VERPE [1]: 90%
Post-emergence efficacy at 1280 g/ha against AMARE in % [4]: 90%

N#CC(c1ncc(Cl)cn1)c1cccc(Br)c1Oc1ccc(F)cc1 (racemic) [Example 1-36]
Post-emergence efficacy against VERPE [1]: 90%

N#CC(c1ncc(Cl)cn1)c1cccc(C(F)(F)F)c1Oc1ccc(F)cc1 (racemic) [Example 1-39]
Pre-emergence efficacy against ABUTH [5]: 100%
Post-emergence efficacy against VERPE [1]: 100%
Post-emergence efficacy against KCHSC [6]: 90%

N#CC(c1ncc(Cl)cn1)c1ccccc1-n1cc(C(F)(F)F)cn1 (racemic) [Example 1-41]
Pre-emergence efficacy against POAAN [7]: 90%
Post-emergence efficacy against VERPE [1]: 90%
Post-emergence efficacy against POAAN [8]: 90%
Post-emergence efficacy at 1280 g/ha against AMARE in % [4]: 90%
Post-emergence efficacy at 1280 g/ha against ABUTH in % [9]: 90%

Fc1cnc(Cc2ccccc2CCCC(F)(F)F)nc1 [Example 1-3]
Post-emergence efficacy against STEME [3]: 90%
Post-emergence efficacy against VERPE [1]: 90%
Post-emergence efficacy against POAAN [8]: 100%
Post-emergence efficacy at 1280 g/ha against AMARE in % [4]: 90%
Post-emergence efficacy against KCHSC [6]: 90%
Post-emergence efficacy at 1280 g/ha against ABUTH in % [9]: 90%

FC(F)(F)CCCOc1ccccc1Cc1ncc(Cl)cn1 [Example 1-8]
Pre-emergence efficacy against AMARE [2]: 100%
Pre-emergence efficacy against SETVI in % [10]: 90%
Post-emergence efficacy against STEME [3]: 90%
Pre-emergence efficacy against STEME in % [11]: 90%
Post-emergence efficacy against VERPE [1]: 100%
Pre-emergence efficacy against DIGSA [12]: 100%
Pre-emergence efficacy against ECHCG [13]: 90%

COc1cccc(Cc2ncc(Cl)cn2)c1Oc1ccc(F)cc1 [Example 1-33]
Pre-emergence efficacy against AMARE [2]: 100%
Pre-emergence efficacy against SETVI in % [10]: 100%
Pre-emergence efficacy against VERPE in % [14]: 100%
Pre-emergence efficacy against POAAN [7]: 100%
Post-emergence efficacy against STEME [3]: 90%
Pre-emergence efficacy against STEME in % [11]: 90%
Post-emergence efficacy against VERPE [1]: 90%
Post-emergence efficacy against POAAN [8]: 90%

N#CC(c1ncc(Cl)cn1)c1cccc(F)c1Oc1ccc(F)cc1 (centres unmarked) [Example 1-34, (5-Chloropyrimidin-2-yl)[3-fluoro-2-(4-fluorophenoxy)phenyl]acetonitrile]
Pre-emergence efficacy against AMARE [2]: 90%
Post-emergence efficacy against STEME [3]: 90%
Pre-emergence efficacy against STEME in % [11]: 90%
Post-emergence efficacy against VERPE [1]: 100%
Post-emergence efficacy at 1280 g/ha against AMARE in % [4]: 90%

Fc1cccc(OCCCC(F)(F)F)c1Cc1ncc(Cl)cn1 [Example 1-60]
Pre-emergence efficacy against VERPE in % [14]: 90%
Pre-emergence efficacy against POAAN [7]: 90%
Post-emergence efficacy against VERPE [1]: 100%

N#CC(c1ncc(Cl)cn1)c1ccccc1CCCC(F)(F)F (centres unmarked) [Example 1-68]
Post-emergence efficacy at 1280 g/ha against AMARE in % [4]: 100%

N#CC(c1ncc(Cl)cn1)c1ccccc1Cc1ccc(F)cc1 (centres unmarked) [Example 1-69]
Pre-emergence efficacy against ABUTH [5]: 100%
Post-emergence efficacy against STEME [3]: 90%
Post-emergence efficacy against VERPE [1]: 100%
Post-emergence efficacy at 1280 g/ha against AMARE in % [4]: 90%
Post-emergence efficacy against KCHSC [6]: 90%

N#Cc1cccc(C(C#N)c2ncc(Cl)cn2)c1-n1cc(C(F)(F)F)cn1 (centres unmarked) [Example 1-71]
Pre-emergence efficacy against AMARE [2]: 100%
Post-emergence efficacy against STEME [3]: 90%
Pre-emergence efficacy against STEME in % [11]: 90%
Post-emergence efficacy against VERPE [1]: 90%
Post-emergence efficacy at 1280 g/ha against AMARE in % [4]: 100%
Post-emergence efficacy against KCHSC [6]: 100%

N#CC(c1ncc(F)cn1)c1ccccc1CCCC(F)(F)F (centres unmarked) [Example 1-72]
Pre-emergence efficacy against POAAN [7]: 90%

N#CC(c1ccc(Cl)cn1)c1ccccc1CCCC(F)(F)F (centres unmarked) [Example 1-73]
Pre-emergence efficacy against AMARE [2]: 90%
Post-emergence efficacy against VERPE [1]: 90%
Post-emergence efficacy at 1280 g/ha against AMARE in % [4]: 90%

Fc1cc(Cl)cnc1Oc1ccccc1Cc1ncccn1 [Example 1-77]
Pre-emergence efficacy against ABUTH [5]: 90%
Pre-emergence efficacy against AMARE [2]: 100%
Pre-emergence efficacy against POAAN [7]: 90%
Post-emergence efficacy against STEME [3]: 90%
Pre-emergence efficacy against STEME in % [11]: 90%
Post-emergence efficacy against VERPE [1]: 90%
Pre-emergence efficacy against DIGSA [12]: 90%
Post-emergence efficacy against POAAN [8]: 90%
Post-emergence efficacy at 1280 g/ha against AMARE in % [4]: 90%

N#CC(c1ncc(Cl)cn1)c1ccccc1-c1ccc(F)c(F)c1 (centres unmarked) [Example 1-78]
Pre-emergence efficacy against POAAN [7]: 90%
Post-emergence efficacy at 1280 g/ha against AMARE in % [4]: 90%

N#CC(c1ncc(F)cn1)c1ccccc1-c1ccc(F)c(F)c1 (centres unmarked) [Example 1-79]
Pre-emergence efficacy against POAAN [7]: 90%

N#CC(c1ccc(Cl)cn1)c1ccccc1-c1ccc(F)c(F)c1 (centres unmarked) [Example 1-80]
Pre-emergence efficacy against ABUTH [5]: 90%
Pre-emergence efficacy against AMARE [2]: 100%
Pre-emergence efficacy against POAAN [7]: 90%
Post-emergence efficacy against STEME [3]: 90%
Pre-emergence efficacy against STEME in % [11]: 100%
Post-emergence efficacy against VERPE [1]: 90%
Post-emergence efficacy at 1280 g/ha against AMARE in % [4]: 100%

N#CC(c1ccc(Cl)cn1)c1ccccc1Cc1ccc(F)cc1 (centres unmarked) [Example 1-82]
Pre-emergence efficacy against ABUTH [5]: 100%
Pre-emergence efficacy against AMARE [2]: 100%
Pre-emergence efficacy against POAAN [7]: 90%
Pre-emergence efficacy against STEME in % [11]: 100%
Post-emergence efficacy against VERPE [1]: 90%
Post-emergence efficacy at 1280 g/ha against AMARE in % [4]: 100%
Post-emergence efficacy against KCHSC [6]: 90%

FC(F)(F)CCCc1ccccc1Cc1ccc(Cl)cn1 [Example 1-94]
Post-emergence efficacy against VERPE [1]: 100%
Post-emergence efficacy against POAAN [8]: 90%
Post-emergence efficacy at 1280 g/ha against AMARE in % [4]: 90%

Fc1ccc(-c2ccccc2Cc2ccc(Cl)cn2)cc1F [Example 1-97]
Pre-emergence efficacy against AMARE [2]: 100%
Post-emergence efficacy against STEME [3]: 90%
Post-emergence efficacy against VERPE [1]: 100%
Post-emergence efficacy against POAAN [8]: 100%
Post-emergence efficacy at 1280 g/ha against AMARE in % [4]: 100%
Post-emergence efficacy against KCHSC [6]: 100%
Post-emergence efficacy at 1280 g/ha against ABUTH in % [9]: 100%

Fc1ccc(Sc2ccccc2Cc2ccc(Cl)cn2)cc1 [Example 1-105]
Pre-emergence efficacy against AMARE [2]: 100%
Pre-emergence efficacy against VERPE in % [14]: 100%
Pre-emergence efficacy against POAAN [7]: 100%
Post-emergence efficacy against STEME [3]: 90%
Pre-emergence efficacy against STEME in % [11]: 90%
Post-emergence efficacy against VERPE [1]: 90%
Post-emergence efficacy against POAAN [8]: 90%
Post-emergence efficacy at 1280 g/ha against AMARE in % [4]: 90%
Pre-emergence efficacy against ECHCG [13]: 90%
Post-emergence efficacy against KCHSC [6]: 90%
Post-emergence efficacy at 1280 g/ha against ABUTH in % [9]: 90%

Fc1cnc(Cc2ccccc2SCCC(F)(F)F)nc1 [Example 1-111]
Pre-emergence efficacy against AMARE [2]: 100%
Post-emergence efficacy against STEME [3]: 100%
Post-emergence efficacy against VERPE [1]: 100%
Pre-emergence efficacy against DIGSA [12]: 90%
Post-emergence efficacy against POAAN [8]: 100%
Post-emergence efficacy at 1280 g/ha against AMARE in % [4]: 100%
Post-emergence efficacy against KCHSC [6]: 100%
Post-emergence efficacy at 1280 g/ha against ABUTH in % [9]: 90%

Clc1cnc(Cc2ccccc2Sc2ccc(Cl)cc2Cl)nc1 [Example 1-137]
Pre-emergence efficacy against AMARE [2]: 100%
Pre-emergence efficacy against SETVI in % [10]: 100%
Pre-emergence efficacy against POAAN [7]: 90%
Post-emergence efficacy against STEME [3]: 90%
Pre-emergence efficacy against STEME in % [11]: 100%
Post-emergence efficacy against VERPE [1]: 90%
Post-emergence efficacy against POAAN [8]: 90%
Post-emergence efficacy at 1280 g/ha against AMARE in % [4]: 100%
Post-emergence efficacy against KCHSC [6]: 90%
Post-emergence efficacy at 1280 g/ha against ABUTH in % [9]: 90%

Cc1cc(C)c(-c2cc(C(F)F)no2)c(C(C#N)c2ncc(Cl)cn2)n1 (centres unmarked) [Example 2-6]
Pre-emergence efficacy against ABUTH [5]: 100%
Pre-emergence efficacy against AMARE [2]: 90%
Pre-emergence efficacy against STEME in % [11]: 100%
Pre-emergence efficacy against DIGSA [12]: 90%
